Measurements as given in patent US20100160369A1, “S1P1 Agonists and Methods of Making And Using” (EXELIXIS, INC., priority 2008, published 2010).

What was measured:
S1P1 [1] = target: T1, S1P1 (Homo sapiens, UniProt P21453); test: DELFIA GTP-Eu Binding Assay (Assay 3b); format: biochemical; parameters: purchased Lonza; host or cells: CHO cell membranes; conditions: read-out: Assay 3b EC50
Procedure: The DELFIA GTP-Eu binding assay (PerkinElmer) is a time-resolved fluorometric assay based on GDP-GTP exchange. CHO cell membranes (Lonza) expressing human S1P1 were incubated in 96-well filter plates (Pall, East Hills, N.Y.) in a final volume of 100 μL/well buffer containing 40 μg/mL membrane, 50 mM HEPES, 2 μM GDP, 10 mM MgCl2, 100 mM NaCl, 500 μg/mL Saponin and test compound. Test compounds were tested at maximum concentrations of 10 μM. Compounds were diluted (10 concentration points, 3-fold each) and added to the assay plate at a 1% final DMSO concentration. For each compound, there were duplicate assay plates and each assay plate had duplicate wells per concentration point. The plates were incubated for 30 min at room temperature on a plate shaker at low speed. GTP-Eu was added to each well (10 μL, 10 nM final concentration) and the plate was incubated for an additional 30 min with slow shaking The wells were washed with ice cold GTP washing buffer (3×150 μL) using a vacuum manifold and the assay plates read in an EnVision plate reader (PerkinElmer) at an excitation wavelength of 340 nm and an emission wavelength of 615 nm. To determine agonist activity, percent activity was calculated as [(test compound−background)/(positive control−background)*100], where background is the fluorescence in absence of compound and the positive control is the fluorescence from membranes incubated with 1 μM S1P (Avanti). The percent activities were plotted against compound concentration to determine IC50 or EC50 using XLFit (IDBS).
Assay 1 is the CNG cAMP Assay as described in Biological Example 1. Assay 2a and 2b are the Tango™ β-arrestin Recruitment Assay in HEK293 and U2OS cells, respectively, as described in Biological Example 2. Assay 3a is the hS1P1R GTPγS Binding Assay as described in Biological Example 3. Assay 3b is the GTP-Eu Binding Assay as described in Biological Example 3. EC50's were measured unless otherwise noted. […] In the table, “nt” means the Compound was not tested and “no” means the compound was tested but had no measurable activity under the assay conditions employed.
Target sequence in this assay (P21453 whole entry): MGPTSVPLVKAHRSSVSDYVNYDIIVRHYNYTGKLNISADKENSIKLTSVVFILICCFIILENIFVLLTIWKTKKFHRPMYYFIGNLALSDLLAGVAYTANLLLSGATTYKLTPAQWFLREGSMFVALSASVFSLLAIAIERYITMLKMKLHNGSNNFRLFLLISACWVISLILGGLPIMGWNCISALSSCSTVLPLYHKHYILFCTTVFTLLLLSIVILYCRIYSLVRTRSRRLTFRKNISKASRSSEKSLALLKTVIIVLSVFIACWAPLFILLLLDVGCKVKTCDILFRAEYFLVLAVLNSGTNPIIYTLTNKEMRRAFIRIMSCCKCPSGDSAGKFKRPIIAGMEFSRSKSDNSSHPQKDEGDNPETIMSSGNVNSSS

S1P1 [2] = target: T1, S1P1; test: CNG cAMP Assay (Assay 1); format: cell-based; parameters: host or cells: HEK293 cells expressing the CNG channel; conditions: read-out: Assay 1 EC50
Summary of the method: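 HEK293 cells expressing CNG channel and S1P1, membrane-potential dye loaded; compounds (top 10 μM, 10-point 3-fold, 1.8% DMSO) added with 25 μM Ro 20-1724, 500 nM NECA and 10 nM S1P for 90 min. T90/T0 fluorescence (Ex 350/Em 590 nm) normalised to NECA-alone vs DMSO; EC50 fitted.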
Target sequence in this assay (P21453 whole entry): as above

S1P1 [3] = target: T1, S1P1; test: Tango β-arrestin Recruitment Assay in HEK293 cells (Assay 2a); format: cell-based; parameters: linker with TEV protease (N1a) cleavage site (C); host or cells: HEK293, transiently transfected; conditions: Tango β-arrestin Recruitment Assay, read-out: Assay 2a EC50
Summary of the method: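 HEK293 cells transiently expressing S1P1 (TEV-cleavable tTA fusion) with β-arrestin2–TEV; compounds up to 10 μM, 10-point 3-fold, 1% DMSO, 30 min then 16–18 h at 37 °C. Luciferase luminescence normalised to 5 μM S1P as 100% and DMSO as background; EC50 from percent-activity curves.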
Target sequence in this assay (P21453 whole entry): as above
Target sequence in this assay (P32121 whole entry partner): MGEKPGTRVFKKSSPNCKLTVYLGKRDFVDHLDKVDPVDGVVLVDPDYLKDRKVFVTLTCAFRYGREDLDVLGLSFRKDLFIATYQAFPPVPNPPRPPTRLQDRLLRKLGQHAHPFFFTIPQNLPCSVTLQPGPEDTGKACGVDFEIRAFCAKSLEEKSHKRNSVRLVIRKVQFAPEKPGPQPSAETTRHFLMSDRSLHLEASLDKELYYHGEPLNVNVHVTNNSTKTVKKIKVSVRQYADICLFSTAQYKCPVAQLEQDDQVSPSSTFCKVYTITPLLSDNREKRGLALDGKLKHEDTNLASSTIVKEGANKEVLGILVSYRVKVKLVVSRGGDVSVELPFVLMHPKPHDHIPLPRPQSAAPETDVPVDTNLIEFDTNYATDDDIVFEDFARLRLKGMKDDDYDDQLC

Compound	EC50 (S1P1 [1]) [nM]	EC50 (S1P1 [2]) [nM]	EC50 (S1P1 [3]) [nM]
C[C@H](CO)Oc1cc(Cl)c(-c2noc(-c3cn4cc(C(F)(F)F)cc(Cl)c4n3)n2)cc1F [Example 93, (2R)-2-[(5-chloro-4-{5-[8-chloro-6-(trifluoromethyl)imidazo[1,2-a]pyridin-2-yl]-1,2,4-oxadiazol-3-yl}-2-fluorophenyl)oxy]propan-1-ol]	≤ 100	≤ 100	≤ 100
O=C(O)CCc1cc(Cl)c(-c2noc(-c3cn4cc(C(F)(F)F)cc(Cl)c4n3)n2)cc1F [Entry 24]	≤ 100	≤ 100	≤ 100
O=C(O)CCc1cc(Cl)c(-c2nnc(-c3cn4cc(C(F)(F)F)cc(Br)c4n3)s2)cc1F [Example 177, 3-(4-{5-[8-bromo-6-(trifluoromethyl)imidazo[1,2-a]pyridin-2-yl]-1,3,4-thiadiazol-2-yl}-5-chloro-2-fluorophenyl)propanoic acid]	≤ 100	≤ 100	≤ 100
Cc1cc(CCC(=O)O)c(Cl)cc1-c1noc(-c2cn3cc(C(F)(F)F)cc(Cl)c3n2)n1 [Entry 56]	≤ 100	≤ 100	≤ 100
O=C(O)CCc1cc(Cl)c(-c2noc(-c3cn4cc(C(F)(F)F)cc(Br)c4n3)n2)cc1F [Entry 49]	100 to 500	≤ 100	≤ 100
O=C(O)CCc1cc(Cl)c(-c2nnc(-c3cn4cc(C(F)(F)F)cc(Cl)c4n3)s2)cc1F [Example 176, 3-(5-chloro-4-{5-[8-chloro-6-(trifluoromethyl)imidazo[1,2-a]pyridin-2-yl]-1,3,4-thiadiazol-2-yl}-2-fluorophenyl)propanoic acid]	≤ 100	≤ 100	≤ 100

Second part, the compound after the results:

EC50 (S1P1 [1]) [nM]	EC50 (S1P1 [2]) [nM]	EC50 (S1P1 [3]) [nM]	Compound
≤ 100	≤ 100	≤ 100	CC(C)Oc1cc(Cl)c2nc(-c3nc(-c4cc(F)c(CCC(=O)O)cc4Cl)no3)cn2c1 [Example 301, 3-[5-chloro-4-(5-{8-chloro-6-[(1-methylethyl)oxy]imidazo[1,2-a]pyridin-2-yl}-1,2,4-oxadiazol-3-yl)-2-fluorophenyl]propanoic acid]
100 to 500	≤ 100	≤ 100	OCCOc1cc(Cl)c(-c2noc(-c3cn4cc(C(F)(F)F)cc(Cl)c4n3)n2)cc1F [Example 263, 2-[(5-chloro-4-{5-[8-chloro-6-(trifluoromethyl)imidazo[1,2-a]pyridin-2-yl]-1,2,4-oxadiazol-3-yl}-2-fluorophenyl)oxy]ethanol]
100 to 500	≤ 100	≤ 100	OCC(O)COc1cc(Cl)c(-c2noc(-c3cn4cc(C(F)(F)F)cc(Cl)c4n3)n2)cc1Cl (stereo not drawn) [Example 208, 3-[(2,5-dichloro-4-{5-[8-chloro-6-(trifluoromethyl)imidazo[1,2-a]pyridin-2-yl]-1,2,4-oxadiazol-3-yl}phenyl)oxy]propane-1,2-diol]
100 to 500	≤ 100	≤ 100	O=C(O)CCc1cc(Cl)c(-c2nc(-c3cn4cc(C(F)(F)F)cc(Cl)c4n3)no2)cc1F [Example 233, 3-(5-chloro-4-{3-[8-chloro-6-(trifluoromethyl)imidazo[1,2-a]pyridin-2-yl]-1,2,4-oxadiazol-5-yl}-2-fluorophenyl)propanoic acid]
≤ 100	≤ 100	≤ 100	O=C(O)CCc1cc(Cl)c(-c2noc(-c3cn4cc(I)cc(Cl)c4n3)n2)cc1F [Example 302, 3-{5-chloro-4-[5-(8-chloro-6-iodoimidazo[1,2-a]pyridin-2-yl)-1,2,4-oxadiazol-3-yl]-2-fluorophenyl}propanoic acid]
≤ 100	≤ 100	≤ 100	O=C(O)CCc1cc(Cl)c(-c2noc(-c3cn4cc(C(F)(F)F)cc(Cl)c4n3)n2)cc1Cl [Example 242, 3-(2,5-dichloro-4-{5-[8-chloro-6-(trifluoromethyl)imidazo[1,2-a]pyridin-2-yl]-1,2,4-oxadiazol-3-yl}phenyl)propanoic acid]
